According to US8088799B2, “Pharmaceutical composition comprising a sodium hydrogen exchange inhibitor and an angiotensin converting enzyme inhibitor” (Sanofi-Aventis Deutschland GmbH, priority 2002, dated 2012):
“Also recorded” adds a separate entry of the source.

Tests used:
[1] = tested on: spontaneously hypertensive rats (SHR); assay: Survival rate of old spontaneously hypertensive rats under late-onset treatment; type: in vivo, rat; set-up: key to Holm-adjusted log rank test of survival vs. Cariporide / Holm-adjusted log rank test of survival vs. Placebo: * indicates significant difference; n.s. = not significant; conditions: for Median survival time: time from start of treatment (18th month of life) at which survival rate reaches 50%, Kaplan-Meier estimate
Protocol: (§1) The pharmacological model of spontaneously hypertensive rat is generally accepted to be representative of human essential hypertony. In each experimental group initially 27 18-months old rats were employed. 3 months after the start of treatment, when the number of surviving animals in the placebo control group was only 7, an interim analysis was carried out on 7 animals from each group.
The effect of a ramipril and cariporide combination product on the survival rate of rats with genetically related hypertension was investigated.
(§2) In the experiment old hypertensive rats (age: 18 months) were treated with the NHE inhibitor cariporide or with a subthreshold dose of ramipril with no lowering effect on the blood pressure or with a combination of both substances. For each of the four treatments 27 18-month old rats were employed. A daily dose of 400 mg of cariporide per kg body weight (0.6% cariporide in standard rat feed) and 10 μg ramipril per kg body weight (in the drinking water) were given. 3 months after the start of treatment, when the number of surviving animals in the placebo control group was only 7, an interim analysis was carried out on 7 animals from each group. The remaining, still living rats per group were continuously treated as mentioned above since they were 18 months old.
Thus, in the determination of the survival time […] 18-month old rats were employed in each experimental group (table 1).
There are evidently distinct differences between placebo and product groups on the one hand and between the individual products and the combination after the experiment had lasted only 3-4 months.
The statistical analysis was carried out essentially using the SAS/STAT procedure LIFETEST [SAS Institute Inc. (1989): SAS/STAT User's Guide, Version 6, 4th Edition, Volume 2, Cary, N.C.; SAS Institute Inc.]. The log rank tests were carried out pairwise on the experimental groups and adjusted to obtain a multiple significance level of 5% according to Holm [S. Holm (1979): A Simple Sequentally Rejective Multiple Test Procedure; Scand. J. Statist.; 6, pp 65-70].

[2] = tested on: hearts of old spontaneously hypertensive rats; assay: Interim analysis 3 months after start of treatment: heart function, myocardial fibrosis (Hyp/Arg), heart weight; type: in vivo, rat; conditions: 7 animals per group; for Force of myocardial contraction / function of the heart: compared with placebo control hearts, 3 months after start of treatment
Protocol: as §1, §2
As mentioned above, 3 months after the start of treatment, when the number of surviving animals in the placebo control group was only 7, an interim analysis was carried out on 7 animals from each group. The weight of the complete heart and the weight of the left and right ventricle were measured. Just so, the molar ratio of hydroxyproline and ariginine in the heart tissues was measured (measured via HPLC), which is a marker for the myocardial fibrosis. […] Hyp/Arg is the ratio of hydroxyproline to arginine and is regarded as a fibrosis marker.
These effects are also reflected in the weights of the hearts (FIG. 3).

[3] = tested on: spontaneously hypertensive rats; conditions: known for some time; cited from earlier work
[4] = tested on: old normotensive rats; conditions: from WO 00/38661; cited from earlier work
[5] = age 18 months (start of treatment), 20 rats per group, cariporide 400 mg/kg/day in feed, ramipril 10 μg/kg/day in drinking water
[6] = age 19 months, of 20 rats per group
[7] = age 20 months, of 20 rats per group
[8] = age 21 months, of 20 rats per group
[9] = age 22 months, of 20 rats per group
[10] = age 23 months, of 20 rats per group
[11] = age 24 months, of 20 rats per group
[12] = age 25 months, of 20 rats per group
[13] = age 26 months, of 20 rats per group
[14] = age 27 months, of 20 rats per group
[15] = age 28 months, of 20 rats per group
[16] = age 29 months, of 20 rats per group
[17] = pairwise comparison, multiple significance level of 5%

SMILES	Number of surviving rats [1, 5]	Number of surviving rats [1, 6]	Number of surviving rats [1, 7]	Number of surviving rats [1, 8]	Number of surviving rats [1, 9]	Number of surviving rats [1, 10]	Number of surviving rats [1, 11]	Number of surviving rats [1, 12]	Number of surviving rats [1, 13]	Number of surviving rats [1, 14]	Number of surviving rats [1, 15]	Number of surviving rats [1, 16]	Holm-adjusted log rank test of survival vs. Placebo [1, 17]	Survival rate compared with the placebo treatment ([1]; result in words)	Median survival time [1] [months]	Force of myocardial contraction / function of the heart [2]	also measured
CC(C)c1ccc(C(=O)N=C(N)N)cc1S(C)(=O)=O.CS(=O)(=O)O [Cariporide, cariporide]	20	18	16	12	8	7	7	5	0	0	0	0	*	statistically significant improvement in the survival rate	4.0	significantly improved the function of the heart	Difference in survival rates between cariporide and ramipril ([1]; result in words, chosen significance level): No significant differences; Weight of the hearts ([2]; 3 months after start of late treatment): significantly smaller weights of the hearts; Myocardial fibrosis (Hyp/Arg ratio of hydroxyproline to arginine) ([2]; 3 months after start of late treatment, HPLC): significantly reduced; also recorded: possible for a preexisting fibrosis to be reduced
CCOC(=O)[C@H](CCc1ccccc1)N[C@@H](C)C(=O)N1[C@H](C(=O)O)C[C@@H]2CCC[C@@H]21 [Ramipril, ramipril]	20	18	15	11	9	4	0	0	0	0	0	0	*	statistically significant improvement in the survival rate	4.0	significant reduction in the force of myocardial contraction	Holm-adjusted log rank test of survival vs. Cariporide [1, 17]: n.s.; Life span of spontaneously hypertensive rats [3]: significantly prolongs the life span; Protective effect on pathological age-related organ changes [4]: no protective effect at all
